Assay results published in BindingDB's records for doi:10.1016/j.chembiol.2004.10.013 (University of Dundee, 2005).
pIC50, pKd, pKi: −log10 of the molar value. *1 amine or outer side, *2 acyl side, *3 side chain or, on linkers, in order; H or OH if unused. Where a SMILES comes first, the peptide text is derived from it. Side-chain parts run from the residue outwards. [ ]: non-standard residue; d: D form. βAsp = O=C(O)[C@H](CC(=O)[*:2])N[*:1]; NMeF = CN[C@@H](Cc1ccccc1)C(=O)O; CO = O=C([*:1])[*:2]

Key:
Experiment in all cases: Enzyme Inhibition Assay
Endochitinase B1 [D175A] = Endochitinase B1 [D175A] (Aspergillus fumigatus, UniProt Q873X9, D175A)
Endochitinase B1 [E322A] = Endochitinase B1 [E322A] (Aspergillus fumigatus, UniProt Q873X9, E322A)
Endochitinase B1 [T138A] = Endochitinase B1 [T138A] (Aspergillus fumigatus, UniProt Q873X9, T138A)
Endochitinase B1 [Y245F] = Endochitinase B1 [Y245F] (Aspergillus fumigatus, UniProt Q873X9, Y245F)
Chitinase B = biological target: T1, Chitinase B (Serratia marcescens, UniProt P11797); settings: pH 5.5; 37 °C
T1 sequence (P11797 whole entry): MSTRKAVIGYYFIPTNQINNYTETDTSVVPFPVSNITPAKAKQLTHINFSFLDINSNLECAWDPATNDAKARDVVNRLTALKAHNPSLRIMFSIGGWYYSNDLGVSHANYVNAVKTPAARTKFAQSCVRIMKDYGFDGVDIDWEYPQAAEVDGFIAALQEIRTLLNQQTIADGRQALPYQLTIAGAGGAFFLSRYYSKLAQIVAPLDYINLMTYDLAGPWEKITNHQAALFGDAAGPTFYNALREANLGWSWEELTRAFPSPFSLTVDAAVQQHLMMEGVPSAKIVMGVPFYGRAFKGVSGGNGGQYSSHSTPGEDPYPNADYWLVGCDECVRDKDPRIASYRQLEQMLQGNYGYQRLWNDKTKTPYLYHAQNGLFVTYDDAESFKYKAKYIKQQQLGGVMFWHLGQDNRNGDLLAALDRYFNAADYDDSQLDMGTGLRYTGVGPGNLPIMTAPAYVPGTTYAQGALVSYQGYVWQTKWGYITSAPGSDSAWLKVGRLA

Endochitinase B1 [M243A] = Endochitinase B1 [M243A] (Aspergillus fumigatus, UniProt Q873X9, M243A)
Endochitinase B1 = Endochitinase B1 (Aspergillus fumigatus, UniProt Q873X9); settings: for pIC50: pH 5.5, 37 °C
Endochitinase B1 [A217G] = Endochitinase B1 [A217G] (Aspergillus fumigatus, UniProt Q873X9, A217G)
Endochitinase B1 [R301K] = Endochitinase B1 [R301K] (Aspergillus fumigatus, UniProt Q873X9, R301K)

SMILES	pKd (Endochitinase B1 [D175A])	pKd (Endochitinase B1 [E322A])	pKd (Endochitinase B1 [T138A])	pKd (Endochitinase B1 [Y245F])	pKi (Chitinase B)	pKd (Endochitinase B1 [M243A])	pKd (Endochitinase B1)	pIC50 (Endochitinase B1)	pKd (Endochitinase B1 [A217G])	pKd (Endochitinase B1 [R301K])
CC(=O)NC(=N)NCCC[C@@H]1NC(=O)[C@H](CCCC(=O)O)NC(=O)[C@H](Cc2c[nH]cn2)N2C(=O)[C@H](C[C@H]2O)NC(=O)[C@H]2CCCN2C1=O [4-[(1S,4R,10S,13S,16S,18R)-10-{3-[(acetamidomethanimidoyl)amino]propyl}-18-hydroxy-16-(1H-imidazol-4-ylmethyl)-3,9,12,15,20-pentaoxo-2,8,11,14,17-pentaazatricyclo[15.2.1.0^{4,8}]icosan-13-yl]butanoic acid]	5.44	5.53	5.52	5.25	7.70	5.03	6.09	6.30	5.55	5.99
CNC(=O)NC(=N)NCCC[C@@H]1NC(=O)[C@@H](C)NC(=O)C[C@@H](C(=O)O)NC(=O)C[C@@H](C(=O)O)NC(=O)[C@H](Cc2ccccc2)N(C)C1=O [(2R,5S,8S,11S,15S)-8-benzyl-2,7-dimethyl-5-[3-({[(methylcarbamoyl)amino]methanimidoyl}amino)propyl]-3,6,9,13,17-pentaoxo-1,4,7,10,14-pentaazacycloheptadecane-11,15-dicarboxylic acid] (cyclo([NMeF][βAsp][βAsp][dA]R([CO-NHMe])))	5.42	5.86	5.92		4.48	5.76	6.34	5.96	5.37	5.67
